Experimental findings from the supplement of paper PMC10307832 are described below.

Common to all, as to assay: relative viability (nuclei count vs DMSO), 5 days (fraction); higher = more cells survive
Compound in test [1]: CC1=NC=CC(=C1)C2=CC=C(C=C2)CC(=O)NC3=CC=C(C=C3)C4=CN=CC=C4 [Wnt-C59] + CS(=O)(=O)CCNCc1ccc(-c2ccc3ncnc(Nc4ccc(OCc5cccc(F)c5)c(Cl)c4)c3c2)o1 [Lapatinib] (partner 2 µM)
In outline:
(§1)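 Relative viability equals treated-well nuclei counts divided by vehicle-well nuclei counts. Counts came from 4× images of lung cancer cell lines grown in 1536-well plates for 5 days after pin-tool dosing on the day after seeding. Dosing used one drug alone or a fixed anchor-drug dose plus five library-drug doses (not always all listed) in √10 steps, and values are medians of duplicate plates.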

Compound in test [2]: CS(=O)(=O)CCNCc1ccc(-c2ccc3ncnc(Nc4ccc(OCc5cccc(F)c5)c(Cl)c4)c3c2)o1 [Lapatinib] + COc1cc2c(Oc3ccc(NC(=O)C4(C(=O)Nc5ccc(F)cc5)CC4)cc3F)ccnc2cc1OCCCN1CCOCC1 [Foretinib] (partner 0.25 µM)
A digest of the protocol: as §1

Compound in test [3]: CS(=O)(=O)CCNCc1ccc(-c2ccc3ncnc(Nc4ccc(OCc5cccc(F)c5)c(Cl)c4)c3c2)o1 [Lapatinib] + C[C@@H](Oc1cc(-c2cnn(C3CCNCC3)c2)cnc1N)c1c(Cl)ccc(F)c1Cl [Crizotinib] (partner 1 µM)
In outline:
as §1

Compound in test [4]: CS(=O)(=O)CCNCc1ccc(-c2ccc3ncnc(Nc4ccc(OCc5cccc(F)c5)c(Cl)c4)c3c2)o1 [Lapatinib] + Nc1ncn([C@H]2C[C@H](O)[C@@H](CO)O2)c(=O)n1 [Decitabine] (partner 2 µM)
In outline: as §1

Consider NCI-H1915, for which the relative viability came out at 0.88 in test [1] (first compound 0.001 µM); 0.939 in test [1] (first compound 0.01 µM); 1.03 in test [1] (first compound 0.03162 µM); 0.944 in test [1] (first compound 0.1 µM); 1.06 in test [2] (first compound 0.06325 µM); 1.12 in test [2] (first compound 0.2 µM). Further, the relative viability in test [2] (first compound 0.6325 µM) amounted to 1.08; in test [2] (first compound 2 µM), 1.09; in test [3] (first compound 0.06325 µM) it was 0.868; in test [3] (first compound 0.2 µM), 0.887; in test [3] (first compound 0.6325 µM), 0.846; in test [3] (first compound 2 µM), 0.86. Also, the relative viability in test [4] (first compound 0.06325 µM) was found to be 0.284; in test [4] (first compound 0.2 µM), 0.248; in test [4] (first compound 0.6325 µM) it was 0.253; in test [4] (first compound 2 µM), 0.255.

Calu-6: the relative viability in test [1] (first compound 0.001 µM) is 1.07; in test [1] (first compound 0.01 µM), 1.06; in test [1] (first compound 0.03162 µM), 1.08; in test [1] (first compound 0.1 µM), 0.951; in test [2] (first compound 0.02 µM), 0.86; in test [2] (first compound 0.06325 µM), 0.852. The relative viability in test [2] (first compound 0.2 µM) was 0.862; in test [2] (first compound 0.6325 µM), 0.878; in test [2] (first compound 2 µM) it was 0.904; in test [3] (first compound 0.02 µM), 0.846; in test [3] (first compound 0.06325 µM), 0.801; in test [3] (first compound 0.2 µM) it was 0.909. Also, the values for the relative viability in test [3] (first compound 0.6325 µM) and in test [3] (first compound 2 µM) were 0.763 and 0.753, respectively.

On to LU99A, for which the relative viability amounted to 0.905 in test [1] (first compound 0.001 µM); 0.999 in test [1] (first compound 0.01 µM); 1.07 in test [1] (first compound 0.03162 µM); 0.97 in test [1] (first compound 0.1 µM); 0.784 in test [2] (first compound 0.02 µM); 0.72 in test [2] (first compound 0.06325 µM). In addition, the relative viability in test [2] (first compound 0.2 µM) is 0.74; in test [2] (first compound 0.6325 µM), 0.836; in test [2] (first compound 2 µM), 0.815; in test [3] (first compound 0.02 µM) it was 0.591; in test [3] (first compound 0.06325 µM) it was 0.464; in test [3] (first compound 0.2 µM), 0.53. In addition, the relative viability is 0.582 in test [3] (first compound 0.6325 µM); 0.597 in test [3] (first compound 2 µM); 0.903 in test [4] (first compound 0.02 µM); 0.73 in test [4] (first compound 0.06325 µM); 0.859 in test [4] (first compound 0.2 µM); 0.896 in test [4] (first compound 0.6325 µM). For the same cell line, the relative viability in test [4] (first compound 2 µM) is 0.721.

For the cell line LOU-NH91, the relative viability amounted to 0.76 in test [1] (first compound 0.001 µM); 0.709 in test [1] (first compound 0.01 µM); 0.768 in test [1] (first compound 0.03162 µM); 0.771 in test [1] (first compound 0.1 µM); 0.902 in test [2] (first compound 0.02 µM); 0.815 in test [2] (first compound 0.06325 µM). Also, the relative viability in test [2] (first compound 0.2 µM) is 0.689; in test [2] (first compound 0.6325 µM) it was 0.604; in test [2] (first compound 2 µM), 0.498; in test [3] (first compound 0.02 µM), 0.697; in test [3] (first compound 0.06325 µM) it was 0.626; in test [3] (first compound 0.2 µM), 0.599. Also, the relative viability in test [3] (first compound 0.6325 µM) was 0.547; in test [3] (first compound 2 µM) it was 0.534; in test [4] (first compound 0.02 µM), 0.789; in test [4] (first compound 0.06325 µM), 0.709; in test [4] (first compound 0.2 µM) it was 0.65; in test [4] (first compound 0.6325 µM) it was 0.663. Besides, the relative viability in test [4] (first compound 2 µM) was 0.652.

As for NCI-H1703, the relative viability in test [1] (first compound 0.001 µM) came to 1.16; in test [1] (first compound 0.01 µM), 1.28; in test [1] (first compound 0.03162 µM), 1.3; in test [1] (first compound 0.1 µM), 1.12; in test [2] (first compound 0.02 µM), 0.305; in test [2] (first compound 0.06325 µM), 0.347. Besides, the relative viability is 0.296 in test [2] (first compound 0.2 µM); 0.299 in test [2] (first compound 0.6325 µM); 0.388 in test [2] (first compound 2 µM); 0.696 in test [3] (first compound 0.02 µM); 0.873 in test [3] (first compound 0.06325 µM); 0.774 in test [3] (first compound 0.2 µM). The relative viability came out at 0.879 in test [3] (first compound 0.6325 µM) and 0.63 in test [3] (first compound 2 µM).

As to NCI-H1563, the relative viability is 0.873 in test [1] (first compound 0.001 µM); 1.04 in test [1] (first compound 0.01 µM); 0.896 in test [1] (first compound 0.03162 µM); 0.882 in test [1] (first compound 0.1 µM); 0.861 in test [2] (first compound 0.02 µM); 0.881 in test [2] (first compound 0.06325 µM). In addition, the relative viability is 0.953 in test [2] (first compound 0.2 µM); 0.831 in test [2] (first compound 0.6325 µM); 0.857 in test [2] (first compound 2 µM); 0.881 in test [3] (first compound 0.02 µM); 0.874 in test [3] (first compound 0.06325 µM); 0.861 in test [3] (first compound 0.2 µM). Moreover, the relative viability in test [3] (first compound 0.6325 µM) is 0.789; in test [3] (first compound 2 µM), 0.774.

Consider NCI-H1623, for which the relative viability is 0.702 in test [2] (first compound 0.02 µM); 0.637 in test [2] (first compound 0.06325 µM); 0.634 in test [2] (first compound 0.2 µM); 0.785 in test [2] (first compound 0.6325 µM); 0.277 in test [2] (first compound 2 µM).

As for NCI-H1299, the relative viability in test [1] (first compound 0.001 µM) came to 0.984; in test [1] (first compound 0.01 µM), 0.975; in test [1] (first compound 0.03162 µM) it was 0.982; in test [1] (first compound 0.1 µM), 0.988; in test [2] (first compound 0.02 µM) it was 1.1; in test [2] (first compound 0.06325 µM), 0.885. Further, the relative viability in test [2] (first compound 0.2 µM) came to 1.12; in test [2] (first compound 0.6325 µM), 1.1; in test [2] (first compound 2 µM), 1.05; in test [3] (first compound 0.02 µM), 0.952; in test [3] (first compound 0.06325 µM), 1.03; in test [3] (first compound 0.2 µM), 0.893. For the same cell line, the relative viability was 0.944 in test [3] (first compound 0.6325 µM) and 0.916 in test [3] (first compound 2 µM).

HCC-44: the relative viability in test [1] (first compound 0.001 µM) is 1.01; in test [1] (first compound 0.01 µM), 1.03; in test [1] (first compound 0.03162 µM), 1.01; in test [1] (first compound 0.1 µM) it was 1.03; in test [3] (first compound 0.02 µM), 0.747; in test [3] (first compound 0.06325 µM), 0.743. For the same cell line, the relative viability was 0.837 in test [3] (first compound 0.2 µM); 0.802 in test [3] (first compound 0.6325 µM); 0.675 in test [3] (first compound 2 µM); 0.838 in test [4] (first compound 0.02 µM); 0.908 in test [4] (first compound 0.06325 µM); 0.964 in test [4] (first compound 0.2 µM). The relative viability in test [4] (first compound 0.6325 µM) was determined as 1.02; in test [4] (first compound 2 µM), 0.797.

NCI-H2342: the relative viability in test [2] (first compound 0.02 µM) is 1.09; in test [2] (first compound 0.06325 µM), 1.01; in test [2] (first compound 0.2 µM), 0.946; in test [2] (first compound 0.6325 µM), 0.975; in test [2] (first compound 2 µM), 0.712; in test [4] (first compound 0.02 µM) it was 0.706. Further, the relative viability came out at 0.694 in test [4] (first compound 0.06325 µM), 0.618 in test [4] (first compound 0.2 µM), 0.691 in test [4] (first compound 0.6325 µM) and 0.638 in test [4] (first compound 2 µM).
